Common to all, as to type: cell-based
In series [1] the test system is human breast cancer cell line (MCF-7). Kind of series: SRB cytotoxicity assay, MCF-7. Conditions: SRB assay. The procedure: (§1) For in vitro cytotoxicity screening, 1000 to 5000 cells were plated into each well of 96-well plates depending on growth rate, and exposed to different concentrations of a test compound for 96 h in three to five replicates. All the compounds were dissolved in dimethyl sulfoxide at 5 to 20 mM, and diluted to desired concentrations in complete culture medium. Cell numbers at the end of the drug treatment were measured by the SRB assay (Gududuru et al., “Synthesis and Biological Evaluation of Novel Cytotoxic Phospholipids for Prostate Cancer,” Bioorg. Med. Chem. Lett. 14:4919-4923 (2004); Rubinstein et al., “Comparison of in vitro Anticancer-Drug-Screening Data Generated with a Tetrazolium Assay Versus a Protein Assay Against a Diverse Panel of Human Tumor Cell Lines,” J. Natl. Cancer Inst. 82:1113-1118 (1990), each of which is hereby incorporated by reference in its entirety). Briefly, the cells were fixed with 10% of trichloroacetic acid, stained with 0.4% SRB, and the absorbances at 540 nm was measured using a plate reader (DYNEX Technologies, Chantilly, Va.). […] A sandwich ELISA (Roche, Mannheim, Germany) utilizing monoclonal antibodies specific for DNA and histones was used to quantify degree of apoptosis induced by the analogs after 72 h exposure. This assay measures DNA-histone complexes (mono- and oligonucleosomes) released into cytoplasm from the nucleus during apoptosis.
In vitro cytotoxicity assay was performed by the same sulforhodamine B (SRB) assay (described above). The compounds shown in Table 8 below where tested for activity against the breast cancer and ovarian cancer cell lines.
RH7777 and CV-1 cells were used as negative controls and MCF-7 cell line (breast cancer) was included to examine the selectivity.

Series [2] relates to PC-3 human prostate cancer cells. Kind of series: SRB cytotoxicity assay, PC-3. Conditions: 96 h exposure, prostate cancer cell line. The procedure: as §1
The test system of series [3] is five human prostate cancer cell lines (DU-145, PC-3, LNCaP, PPC-1, and TSU-Pr1). Kind of series: SRB assay, statements on the panel of prostate cancer cell lines. The procedure:
Cell numbers at the end of the drug treatment were measured by the SRB assay (Gududuru et al., “Synthesis and Biological Evaluation of Novel Cytotoxic Phospholipids for Prostate Cancer,” Bioorg. Med. Chem. Lett. 14:4919-4923 (2004); Rubinstein et al., “Comparison of in vitro Anticancer-Drug-Screening Data Generated with a Tetrazolium Assay Versus a Protein Assay Against a Diverse Panel of Human Tumor Cell Lines,” J. Natl. Cancer Inst. 82:1113-1118 (1990), each of which is hereby incorporated by reference in its entirety). Briefly, the cells were fixed with 10% of trichloroacetic acid, stained with 0.4% SRB, and the absorbances at 540 nm was measured using a plate reader (DYNEX Technologies, Chantilly, Va.). […] A sandwich ELISA (Roche, Mannheim, Germany) utilizing monoclonal antibodies specific for DNA and histones was used to quantify degree of apoptosis induced by the analogs after 72 h exposure. This assay measures DNA-histone complexes (mono- and oligonucleosomes) released into cytoplasm from the nucleus during apoptosis. […] EDG-ology of Liver Injury,” Biochimica et Biophysica ACT 1582:251-256 (2002), which is hereby incorporated by reference in its entirety) was also utilized to understand whether the antiproliferative activity of these derivatives is mediated through inhibition of LPL receptors.

In series [4] the test system is PPC-1 human prostate cancer cells. Put plainly: SRB cytotoxicity assay, PPC-1. To be noted: 96 h exposure, prostate cancer cell line. The procedure: (§2) Dr. Mitchell Steiner at University of Tennessee Health Science Center, kindly provided PPC-1 and TSU-Pr1 cells.
as §1

Series [5] has as its system LNCaP human prostate cancer cells. Put plainly: SRB cytotoxicity assay, LNCaP. To be noted: 96 h exposure, prostate cancer cell line. The procedure: as §1
In series [6] the test system is DU-145 human prostate cancer cells. Kind of series: SRB cytotoxicity assay, DU-145. To be noted: read-out: IC50 DU-145, 96 h exposure, prostate cancer cell line. How it is done:
as §1

Series [7] relates to TSU-Pr1 human prostate cancer cells. Put plainly: SRB cytotoxicity assay, TSU-Pr1. To be noted: 96 h exposure, prostate cancer cell line. The procedure:
as §2, §1

The subject of series [8] is CV-1 cells. Kind of series: SRB cytotoxicity assay, CV-1 control cell line. How it is done:
For in vitro cytotoxicity screening, 1000 to 5000 cells were plated into each well of 96-well plates depending on growth rate, and exposed to different concentrations of a test compound for 96 h in three to five replicates. All the compounds were dissolved in dimethyl sulfoxide at 5 to 20 mM, and diluted to desired concentrations in complete culture medium. Cell numbers at the end of the drug treatment were measured by the SRB assay (Gududuru et al., “Synthesis and Biological Evaluation of Novel Cytotoxic Phospholipids for Prostate Cancer,” Bioorg. Med. Chem. Lett. 14:4919-4923 (2004); Rubinstein et al., “Comparison of in vitro Anticancer-Drug-Screening Data Generated with a Tetrazolium Assay Versus a Protein Assay Against a Diverse Panel of Human Tumor Cell Lines,” J. Natl. Cancer Inst. 82:1113-1118 (1990), each of which is hereby incorporated by reference in its entirety). Briefly, the cells were fixed with 10% of trichloroacetic acid, stained with 0.4% SRB, and the absorbances at 540 nm was measured using a plate reader (DYNEX Technologies, Chantilly, Va.). […] A sandwich ELISA (Roche, Mannheim, Germany) utilizing monoclonal antibodies specific for DNA and histones was used to quantify degree of apoptosis induced by the analogs after 72 h exposure. This assay measures DNA-histone complexes (mono- and oligonucleosomes) released into cytoplasm from the nucleus during apoptosis. RH7777 cells were employed because of nonspecific cytotoxicity of compound 4 in receptor-negative cells as well as receptor-positive prostate cancer cells.
RH7777 and CV-1 cells were used as negative controls and MCF-7 cell line (breast cancer) was included to examine the selectivity. 5-Fluorouracil was used as reference drug.

In series [9] the test system is RH7777 rat hepatoma cells. Put plainly: SRB cytotoxicity assay, RH7777 control cell line. Conditions: SRB assay, 96 h exposure; control cell line. How it is done:
as §1

Regarding `COc1cc(C2NC(C(=O)NCCCCN)CS2)cc(OC)c1OC` (mixture of isomers) [Compound 222], the IC50 in series [1], in series [2], in series [3], in series [4], in series [5] and in [6] was above 100 µM throughout. Moreover, the IC50 in series [7], in series [8] and in series [9] was above 100 µM each time.
Regarding `COc1cc(C2NC(C(=O)NCCCNCCCCN)CS2)cc(OC)c1OC` (mixture of isomers) [Compound 223], the IC50 in series [1], in series [2], in series [3], in series [4], in series [5] and in series [6] was above 100 µM each time. For the same compound, the IC50 in [7], in series [8] and in series [9] was above 100 µM throughout.
With `NCCCCNC(=O)C(N)CO` (stereo not shown) [Compound 214], the IC50 in [1], in [2], in series [3], in series [4], in series [5] and in series [6] was above 100 µM each time. Moreover, the IC50 in series [7], in series [8] and in series [9] was above 100 µM throughout.
For the compound `NCCCCNCCCNC(=O)C(N)CO` (stereo not shown) [Compound 215], the IC50 in series [1], in series [2], in series [3], in series [4], in series [5] and in series [6] was above 100 µM in each case. Also, the IC50 in [7], in series [8] and in series [9] was above 100 µM throughout.
For `NCCCNCCCCNCCCNC(=O)C(N)CO` (stereo not shown) [Compound 216], the IC50 in series [1] was above 100 µM; in series [2], 4.8 µM; in series [4], 4 µM; in series [5], 8 µM; in [6], 4.6 µM; in series [7] it was 2.5 µM. For the same compound, the IC50 stood at 37.1 µM in series [8] and 58.2 µM in series [9].
Take `NCCCCNC(=O)CN1C(=O)CSC1c1ccccc1` (stereo not shown) [Compound 218]: the IC50 in series [1], in series [2], in series [3], in [4], in series [5] and in series [6] was above 100 µM throughout. Further, the IC50 in [7], in series [8] and in series [9] was above 100 µM in each case.
With `NCCCCNCCCNC(=O)CN1C(=O)CSC1c1ccccc1` (stereo not shown) [Compound 219], the IC50 in [1], in series [2], in series [3], in series [4], in series [5] and in series [6] was above 100 µM throughout. The IC50 in series [7], in series [8] and in [9] was above 100 µM each time.
Take `NCCCNCCCCNCCCNC(=O)CN1C(=O)CSC1c1ccccc1` (stereo not shown) [Compound 220]: the IC50 in series [1] is above 100 µM; in series [2] it was 7 µM; in [4], 5.7 µM; in series [5] it was 12.2 µM; in series [6], 5.3 µM; in series [7], 3.2 µM. The values for the IC50 in series [8] and in series [9] were 34 µM and 68.4 µM, respectively.

For the origin of these results see patent US7662842B2, “Thiazolidinone amides, thiazolidine carboxylic acid amides, and serine amides, including polyamine conjugates thereof, as selective anti-cancer agents” (Ohio State Univesity Research Foundation, priority 2003, dated 2010).
